Assays:
[1] = cardiac sensitization relative to CFC-113
Source text: Parameters such as the lethal dose 50 (LD50), lethal concentration 50 (LC50), cardiac sensitization, skin irritation, and mutagenicity (e.g., via the Ames test) can be used as toxicity metrics. The LDn or LCn abbreviations, where n is the percent lethality, are used for the dose of a toxicant lethal to n % of a test population. […] Cardiac sensitization is a measure of the ability of a compound to cause cardiac arrhythmia under stress.
The property modification components are chosen from a list of potential replacement solvents. These compounds included halogenated compounds such as halogenated acetates, alcohols, alkanes, cycloalkanes, alkenes, cycloalkenes, amines, anhydrides, aromatics, carbonyls, diones, esters, ethers, heterocyclics and ketones.

[2] = solubility parameter, Table 1; cited from earlier work
[3] = Table 1; cited from earlier work

| Structure (SMILES) | CS/CS113 [1] | SP [2] | BP [3] [C.] |
| --- | --- | --- | --- |
| Fc1c(F)c(Br)c(F)c(C(F)(F)F)c1F [3-bromoheptafluorotoluene] | 21.1 | 7.66 (cal/cm^3)^1/2 | 153.0 |
| FC(=C(C(F)(F)F)C(F)(F)F)C(F)(F)Br [4-bromo-1,1,1,3,4,4-hexafluoro-2-(trifluoromethyl)-2-butene] | 103.2 | 6.51 (cal/cm^3)^1/2 | 68.1 |
| FC(F)(Br)C=C(C(F)(F)F)C(F)(F)F [4-bromo-1,1,1,4,4-pentafluoro-2-(trifluoromethyl)-2-butene] | 105.5 | 6.74 (cal/cm^3)^1/2 | 61.0 |
| FC(F)=C(F)C(F)(F)C(F)(F)Br [4-bromo-1,1,2,3,3,4,4-heptafluorobutene] | 23.4 | 6.78 (cal/cm^3)^1/2 | 51.5 |
| FC(F)=C(F)C(F)(F)CBr [4-bromo-1,1,2,3,3-pentafluorobutene] | 25.3 | 7.79 (cal/cm^3)^1/2 | 80.4 |
| C=C(F)C(F)(F)C(F)(F)Br [4-bromo-2,3,3,4,4-pentafluorobutene] | 6.0 | 7.21 (cal/cm^3)^1/2 | 69.2 |
| C=CC(F)(F)C(F)(F)Br [4-bromo-3,3,4,4-tetrafluoro-1-butene] | 5.8 | 7.44 (cal/cm^3)^1/2 | 55.0 |
| C=CC(F)(Cl)C(F)(F)Br (stereo not drawn) [4-bromo-3-chloro-3,4,4-trifluoro-1-butene] | 0.8 | 7.76 (cal/cm^3)^1/2 | 99.7 |
| Fc1c(F)c(C(F)(F)F)c(F)c(F)c1Br [4-bromoheptafluorotoluene] | 37.9 | 7.66 (cal/cm^3)^1/2 | 151.3 |
| FC(F)(F)COCC(F)(F)Br [(2,2,2-trifluoroethyl)(2-bromo-2,2-difluoroethyl)ether] | 52.1 | 7.64 (cal/cm^3)^1/2 | 73.0 |
| F/C(OC(F)(F)Br)=C(/F)C(F)(F)F [(E)-1-(bromodifluoromethoxy)-1,2,3,3,3-pentafluoro-1-propene] | 70.1 | 7.25 (cal/cm^3)^1/2 | 65.2 |
| FC(F)(F)O/C=C/OC(F)(F)Br [(E)-1-(bromodifluoromethoxy)-2-(trifluoromethoxy)ethene] | 144.9 | 7.79 (cal/cm^3)^1/2 | 76.5 |
| FC(F)(F)/C=C/OC(F)(F)Br [(E)-1-(bromodifluoromethoxy)-2-(trifluoromethyl)ethene] | 54.3 | 7.73 (cal/cm^3)^1/2 | 57.8 |
| FC(F)(F)/C=C/C(F)(F)Br [(E)-1-bromo-1,1,4,4,4-pentafluoro-2-butene] | 36.6 | 7.37 (cal/cm^3)^1/2 | 40.0 |
| F/C(=C(/F)C(F)(F)Br)C(F)(F)F [(E)-1-bromo-perfluoro-2-butene] | 41.4 | 6.85 (cal/cm^3)^1/2 | 48.0 |
| FC(F)(F)/C(Cl)=C(\Cl)C(F)(F)F [(E)-2,3-dichlorohexafluoro-2-butene] | 72.4 | 7.15 (cal/cm^3)^1/2 | 68.5 |
| F/C(=C(/Br)C(F)(F)F)C(F)(F)F [(E)-2-bromo-1,1,1,3,4,4,4-heptafluoro-2-butene] | 48.6 | 6.82 (cal/cm^3)^1/2 | 49.0 |
| FC(F)(F)/C=C(/Br)C(F)(F)F [(E)-2-bromo-1,1,1,4,4,4-hexafluoro-2-butene] | 42.7 | 7.06 (cal/cm^3)^1/2 | 45.1 |

| Structure (SMILES) | CS/CS113 [1] | SP [2] | BP [3] [C.] |
| --- | --- | --- | --- |
| F/C(OC(F)(F)Br)=C(\F)C(F)(F)F [(Z)-1-(bromodifluoromethoxy)-1,2,3,3,3-pentafluoro-1-propene] | 70.1 | 7.22 (cal/cm^3)^1/2 | 65.2 |
| FC(F)(F)O/C=C\OC(F)(F)Br [(Z)-1-(bromodifluoromethoxy)-2-(trifluoromethoxy)ethene] | 144.9 | 7.79 (cal/cm^3)^1/2 | 76.5 |
| FC(F)(F)/C=C\OC(F)(F)Br [(Z)-1-(bromodifluoromethoxy)-2-(trifluoromethyl)ethene] | 54.3 | 7.63 (cal/cm^3)^1/2 | 57.8 |
| FC(F)(F)/C=C\C(F)(F)Br [(Z)-1-bromo-1,1,4,4,4-pentafluoro-2-butene] | 36.6 | 7.25 (cal/cm^3)^1/2 | 40.0 |
| F/C(Br)=C(/F)OCC(F)(F)F [(Z)-1-bromo-1,2-difluoro-2-(2,2,2-trifluoroethoxy)-ethene] | 52.7 | 7.61 (cal/cm^3)^1/2 | 87.9 |
| F/C(=C(\F)C(F)(F)Br)C(F)(F)F [(Z)-1-bromo-perfluoro-2-butene] | 41.4 | 6.78 (cal/cm^3)^1/2 | 48.0 |
| F/C(=C(\Br)C(F)(F)F)C(F)(F)F [(Z)-2-bromo-1,1,1,3,4,4,4-heptafluoro-2-butene] | 48.6 | 6.79 (cal/cm^3)^1/2 | 49.0 |
| Fc1c(F)c(F)c(C(F)(F)Br)c(F)c1F [(bromodifluoromethyl)-pentafluorobenzene] | 28.2 | 7.63 (cal/cm^3)^1/2 | 153.3 |
| FC(F)(F)COCC(F)(F)F [bis(2,2,2-trifluoroethyl)ether] | 109.2 | 7.32 (cal/cm^3)^1/2 | 62.5 |
| FC(F)OC(F)(F)C(F)(F)OC(F)F [bis(difluoromethoxy)-tetrafluoroethane] | 362.3 | 7.50 (cal/cm^3)^1/2 | 58.0 |
| CCOC(F)(F)C(F)(F)C(F)(F)C(F)(F)F [ethyl-perfluorobutyl ether] | 69.0 | 6.85 (cal/cm^3)^1/2 | 73.0 |
| FCOC(C(F)(F)F)C(F)(F)F [fluoromethyl 2,2,2-trifluoro-1-(trifluoromethyl)ethyl ether, reference compound] | 103.0 | 7.10 (cal/cm^3)^1/2 | 59.0 |
| FC(OC(F)(F)C(F)(F)C(F)(F)F)C(F)(F)F (stereo not drawn) [heptafluoropropyl 1,2,2,2-tetrafluoroethyl ether] | 195.7 | 6.62 (cal/cm^3)^1/2 | 41.0 |
| COC(C(F)(F)F)C(F)(F)F [methyl 2,2,2-trifluroethyl-1-(trifluoromethyl)ether] | 107.3 | 7.26 (cal/cm^3)^1/2 | 50.8 |
| CC(=O)C(F)(F)C(F)(F)C(F)(F)F [methyl heptafluoropropyl ketone] | 25.4 | 7.32 (cal/cm^3)^1/2 | 63.5 |
| COC(=O)C(F)(F)C(F)(F)F [methyl pentafluoropropanoate] | 27.0 | 7.77 (cal/cm^3)^1/2 | 59.5 |
| COC(F)(F)C(F)(F)C(F)(F)C(F)(F)F [methyl perfluorobutyl ether] | 53.5 | 6.75 (cal/cm^3)^1/2 | 51.0 |

Source: patent US7736537B1, “Replacement solvents having improved properties for refrigeration flushes” (Mainstream Engineering Corp., priority 2008, dated 2010)
